Measurements from patent US20240174618A1, “SUBSTITUTED (2-HETEROARYLOXYPHENYL)SULFONATES, SALTS THEREOF AND THEIR USE AS HERBICIDAL AGENTS” (Bayer Aktiengesellschaft, priority 2021, published 2024).

Legend:
Type in all cases: in vivo
[1] = test system: Alopecurus myosuroides (ALOMY); experiment: E. Herbicidal post-emergence efficacy, ALOMY
Procedure: Seeds of monocotyledonous and dicotyledonous weeds and crop plants were placed in sandy loam in plastic or organic planting pots, covered with soil and cultivated in a greenhouse under controlled growth conditions. 2 to 3 weeks after sowing, the test plants were treated at the one-leaf stage. The compounds of the invention, formulated in the form of wettable powders (WP) or as emulsion concentrates (EC), were then sprayed onto the green parts of the plants as aqueous suspension or emulsion with addition of 0.5% additive at a water application rate of 600 l/ha (converted). After the test plants had been kept in the greenhouse under optimum growth conditions for about 3 weeks, the activity of the preparations was rated visually in comparison to untreated controls.
For example, • 100% efficacy=plants have died, • 0% action=like untreated control plants.
Tables E1a to E12b below show the effects of selected compounds of the general formula (I) according to table 1 on various harmful plants at an application rate corresponding to 320 g/ha or less, which were obtained by the experimental procedure mentioned above.

[2] = test system: Avena fatua (AVEFA); experiment: C. Herbicidal pre-emergence efficacy, AVEFA; conditions: 320 g/ha, scored after about 3 weeks
Excerpt: (§1) Seeds of monocotyledonous and dicotyledonous weed plants and crop plants were placed in plastic or organic planting pots and covered with soil. The compounds of the invention, formulated in the form of wettable powders (WP) or as emulsion concentrates (EC), were then applied to the surface of the covering soil as aqueous suspension or emulsion with addition of 0.5% additive at a water application rate equivalent to 600 l/ha (converted). After the treatment, the pots were placed in a greenhouse and kept under good growth conditions for the test plants. After about 3 weeks, the efficacy of the preparations was scored visually in comparison with untreated controls as percentages. For example, • 100% efficacy=plants have died, • 0% efficacy=like untreated control plants.
(§2) Tables C1a to C14b below show the effects of selected compounds of the general formula (I) according to table 1 on various harmful plants at an application rate corresponding to 320 g/ha or less, which were obtained by the experimental procedure mentioned above.

[3] = test system: Alopecurus myosuroides (ALOMY); experiment: A. Herbicidal pre-emergence efficacy, ALOMY; conditions: scored visually after about 3 weeks vs untreated controls
Method in brief: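 Applied before emergence onto covering soil at rates of 1280 g/ha or less, using 600 L/ha spray water with 0.5% additive. Scoring: visual % efficacy after ~3 weeks, greenhouse.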

[4] = test system: Pharbitis purpurea (PHBPU); experiment: C. Herbicidal pre-emergence efficacy, PHBPU; conditions: scored after about 3 weeks
Excerpt: as §1, §2

[5] = test system: Matricaria inodora (MATIN); experiment: C. Herbicidal pre-emergence efficacy, MATIN; conditions: scored after about 3 weeks
Method in brief: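 Pre-emergence test: formulated compounds sprayed as aqueous suspension or emulsion with 0.5% additive at 600 l/ha onto soil covering sown seeds, at rates corresponding to 320 g/ha or less. After about 3 weeks in greenhouse, efficacy scored visually as percent versus untreated controls (100% = plants dead).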

[6] = test system: Zea mays (ZEAMX); experiment: F. Post-emergence effect on useful plants, ZEAMX; conditions: useful plant, application rate 80 g/ha
Method in brief: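 Visual efficacy rating versus untreated plants, from 0% (no effect) to 100% (plants died), made about 3 weeks after post-emergence treatment. Formulated compounds (WP or EC, 0.5% additive, 600 l/ha water) were sprayed onto greenhouse-grown crops at the one-leaf stage, 2-3 weeks after sowing.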

[7] = test system: Echinochloa crus-galli (ECHCG); experiment: B. Herbicidal post-emergence efficacy, ECHCG; conditions: rated visually after about 3 weeks
Method in brief: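 Post-emergence greenhouse test: one-leaf-stage plants, compound (WP/EC, +0.5% additive, 600 L/ha water, ≤1280 g/ha) applied to green parts; % efficacy scored visually vs untreated after ~3 wk; 100% = plants died.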

[8] = test system: Zea mays (ZEAMX); experiment: D. Pre-emergence effect on useful plants, ZEAMX; conditions: useful plant, application rate 80 g/ha
Method in brief: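 Seeds sown in pots and covered with soil; WP or EC formulations sprayed on the soil surface as aqueous suspension/emulsion with 0.5% additive at 600 l/ha water. Plants grown in greenhouse; crop damage scored visually after about 3 weeks as % versus untreated controls (100% = dead, 0% = like control).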

[9] = test system: Alopecurus myosuroides (ALOMY); experiment: B. Herbicidal post-emergence efficacy, ALOMY; conditions: rated visually after about 3 weeks
Procedure: (§3) Seeds of mono- and dicotyledonous weed plants were placed in plastic pots in sandy loam soil (doubly sown with in each case one species of mono- or dicotyledonous weed plants per pot), covered with soil and cultivated in a greenhouse under controlled growth conditions. 2 to 3 weeks after sowing, the test plants were treated at the one-leaf stage. The compounds of the invention, formulated in the form of wettable powders (WP) or as emulsion concentrates (EC), were applied onto the green parts of the plants as aqueous suspension or emulsion with addition of 0.5% additive at a water application rate of 600 liters per hectare (converted). After the test plants had been kept in the greenhouse under optimum growth conditions for about 3 weeks, the activity of the preparations was rated visually in comparison to untreated controls.
(§4) For example, • 100% efficacy=plants have died, • 0% efficacy=like untreated control plants
(§5) Tables B1a to B12c below show the effects of selected inventive compounds of the general formula (I) according to table 1 on various harmful plants at an application rate corresponding to 1280 g/ha or less, which were obtained by the experimental procedure mentioned above.

[10] = test system: Lolium rigidum (LOLRI); experiment: B. Herbicidal post-emergence efficacy, LOLRI; conditions: 1280 g/ha
Procedure: as §3, §4, §5

SMILES | Post-emergence efficacy against ALOMY in % ([1]; application rate 320 g/ha) [%] | Pre-emergence efficacy against AVEFA [2] [%] | Pre-emergence efficacy against ALOMY ([3]; 320 g/ha) [%] | Pre-emergence efficacy against ALOMY ([3]; 1280 g/ha) [%] | Pre-emergence efficacy against PHBPU ([4]; 320 g/ha) [%] | Pre-emergence efficacy against MATIN ([5]; 320 g/ha) [%] | Post-emergence efficacy against ZEAMX in % [6] [%] | Post-emergence efficacy against ECHCG in % ([7]; 320 g/ha) [%] | Post-emergence efficacy against ECHCG in % ([7]; 1280 g/ha) [%] | Pre-emergence efficacy against PHBPU ([4]; 80 g/ha) [%] | Post-emergence efficacy against ALOMY in % ([1]; application rate 80 g/ha) [%] | Pre-emergence efficacy against ZEAMX in % [8] [%] | Post-emergence efficacy against ALOMY in % ([9]; 1280 g/ha) [%] | Post-emergence efficacy against ECHCG in % ([7]; 80 g/ha) [%] | Post-emergence efficacy against ALOMY in % ([9]; 320 g/ha) [%] | Post-emergence efficacy against LOLRI [10] [%] | Pre-emergence efficacy against MATIN ([5]; 80 g/ha) [%]
O=S(=O)(CCC(F)(F)F)Oc1c(F)cccc1Oc1ncc(Br)cn1 [Example I-40] | 90 | 100 | 90 | 100 | 100 | 80 |  |  |  |  |  |  |  |  |  |  | 
O=S(=O)(CCCC(F)F)Oc1c(F)cccc1Oc1ncc(Cl)cn1 [Example I-56] | 80 | 80 | 90 | 100 | 100 |  | 20 | 90 | 90 | 100 |  |  |  |  |  |  | 
O=S(=O)(CCCCl)Oc1ccccc1Oc1ncc(F)cn1 [Example I-5] | 90 | 80 |  | 90 | 80 | 90 |  | 100 | 100 |  | 80 | 20 | 100 | 90 |  |  | 
O=S(=O)(CCCCl)Oc1c(F)cccc1Oc1ncc(Cl)cn1 [Example I-14] | 90 | 80 | 90 | 100 |  |  |  | 100 | 100 |  |  |  | 100 |  | 100 | 100 | 
O=S(=O)(CCCC(F)(F)F)Oc1c(F)cccc1Oc1ncc(F)cn1 [Example I-42] | 100 | 100 | 100 | 100 | 100 | 100 |  | 100 | 100 | 100 | 90 |  | 100 | 100 | 100 |  | 90
O=S(=O)(CC1CC(F)(F)C1)Oc1c(F)cccc1Oc1ncc(Cl)cn1 [Example I-53] | 100 | 80 |  | 100 | 100 | 90 |  | 90 | 90 | 100 | 90 |  | 90 | 90 | 90 | 90 | 
CC(C)CS(=O)(=O)Oc1ccccc1Oc1ncc(Cl)cn1 [Example I-7, [2-(5-Chloropyrimidin-2-yl)oxyphenyl] 2-methylpropane-1-sulfonate] | 90 | 90 |  |  |  |  |  | 90 | 90 |  |  |  |  |  |  |  | 
